Data from patent US5750545A, “Triazole derivative and pharmaceutical use thereof” (The Green Cross Corporation, priority 1993, dated 1998).

What was measured:
eosinophil = experiment: Eosinophilia-Inhibitory Activity (Sephadex G-200 induced, bronchovesicular washing); format: in vivo; conditions: Rattus norvegicus, ip, 168 h, rats, 30 mg/kg intraperitoneally 10 minutes prior to each Sephadex administration (day 0, 2, 5), eosinophils at 7th day
Experimental: Rats weighing 250°-350 g were used (5 per group). The test method was a partial modification of the method reported by B. A. Spicer et al (Br. J. Pharmacol (1990), 101, 821). Sephadex G-200 having a particle size of 40°-120 micron was suspended in isotonic saline at 0.5 mg/ml and boiled for 5 hours on the administration day to allow swelling. The suspension was administered to the rats from the tail vein by 1 ml at day 0, day 2 and day 5. At the 7th day from the initiation of the administration, the rats were anesthetized with 25% urethane (5 ml/kg) and fixed at a dorsal position. A cut down tube was inserted into trachea and applied with a three-way cock at its end. A 5 ml plastic syringe was set on one end of the three-way cock, a 5 ml plastic syringe containing 6 units/ml heparin-PBS (37° C.) was set on the other end and the liquid was injected. Using the empty 5 ml plastic syringe, the liquid was inserted or sucked out three times. This set of operations were repeated three times and the liquid obtained was preserved on ice as a bronchovesicular washing (ca 12 ml). The obtained washing was centrifuged [1000 rpm (150 g)×5 min, 4° C.] and the supernatant thereof was removed by decantation. The residue was re-suspended in 500 μl of RPMI-1640 medium. The total leukocytes in the suspension was counted by Colter counter (Sysmex, MICROCELLCOUNTER CC-120). Hinkelmann's Solution (900 μl), which is an eosinophil count reagent, was added to 100 μl of the re-suspension for staining (1:9), and the proportion of eosinophil count relative to the leukocyte count in one microscopic field was determined using an optical microscope (NIKON, BIOPHOT Type 104). The drug (test compound) was intraperitoneally administered in a dose of 30 mg/kg 10 minutes prior to the respective administration of Sephadex. The control group was administered with an isotonic saline containing 1% Tween 80 and 1% dimethyl sulfoxide instead of the drug.
Eosinophilia-inhibitory activity was calculated from the following formula.

T lymphocytes = experiment: Inhibitory action on T lymphocyte activation stimulated by concanavalin A ([3H]thymidine uptake); format: cell-based; conditions: mouse thymus T lymphocytes, 3 μg/ml concanavalin A, test drug 10 μM, read-out: growth-inhibitory activity, minus percentage figures relative to the control group (thymidine uptake)
Experimental: Inhibitory action on T lymphocyte activation stimulated by concanavalin A
The test was performed according to the method of Mishell, B. B. et al ["Cell Proliferation" in Selected Methods in Cellular Immunology, V, XXiX, W. H. Freeman Co., San Francisco, Calif. pp. 153-160, 1980].
T lymphocytes were isolated from mouse thymus by a conventional method and suspended in DMEM. The cells (5×10^6 cells/ml) were incubated at 37° C. for 12 hours in the presence of 3 μg/ml of concanavalin A. The test drug was added at 10 μM under these incubation conditions. After 12 hours of incubation, 2 μCi [3H]thymidine was added to each well and the well was incubated for 48 hours. After the incubation, the thymidine uptake was determined by a scintillation counter. The growth-inhibitory activity is shown in minus percentage figures relative to the figure of the control group.

Compound CNC(=S)n1nc(-c2ccc(OC)cc2)nc1N [Compound E, 5-amino-3-(4-methoxyphenyl)-1-[methylamino(thiocarbonyl)]-1H-1,2,4-triazole] has an inhibition in vivo at 30 mg/kg (eosinophil) of 70%.

With CNC(=S)n1nc(-c2ccc(Br)cc2)nc1N [Compound K, 5-amino-3-(4-bromophenyl)-1-[methylamino(thiocarbonyl)]-1H-1,2,4-triazole] the inhibition in vivo at 30 mg/kg (eosinophil) was 90% and the inhibition at 10 µM (T lymphocytes) was -35%.

Cn1cnc2ncnn2c1=S [Compound F, 6-methyl-1,2,4-triazolo[1,5-a]-1,3,5-triazine-7(6H)-thione] gave an inhibition in vivo at 30 mg/kg (eosinophil) of 58%.

CNC(=S)n1nc(-c2ccc(-c3ccccc3)cc2)nc1N [Compound M, 5-amino-3-(4-phenylphenyl)-1-[methylamino(thiocarbonyl)]-1H-1,2,4-triazole] was tested, and the inhibition in vivo at 30 mg/kg (eosinophil) was 85%.

CNC(=S)n1nc(N)nc1N [Compound B, 3,5-diamino-1-[methylamino(thiocarbonyl)]-1H-1,2,4-triazole] gave an inhibition in vivo at 30 mg/kg (eosinophil) of 53%.

Cn1cnc2nc(-c3ccc(C(F)(F)F)cc3)nn2c1=S [Compound S, 6-methyl-2-(4-trifluoromethylphenyl)-1,2,4-triazolo[1,5-a]-1,3,5-triazine-7(6H)-thione] showed an inhibition in vivo at 30 mg/kg (eosinophil) of 89% and an inhibition at 10 µM (T lymphocytes) of -36%.

For CNC(=S)n1nc(-c2ccc(F)cc2)nc1N [Compound J, 5-amino-3-(4-fluorophenyl)-1-[methylamino(thiocarbonyl)]-1H-1,2,4-triazole], the inhibition in vivo at 30 mg/kg (eosinophil) was 80%.

Cn1cnc2nc(-c3ccc(Br)cc3)nn2c1=S [Compound R, 2-(4-bromophenyl)-6-methyl-1,2,4-triazolo[1,5-a]-1,3,5-triazine-7(6H)-thione] was tested, and the inhibition in vivo at 30 mg/kg (eosinophil) was 88% and the inhibition at 10 µM (T lymphocytes) was -58%.

In the case of Cn1cnc2nc(-c3ccc(-c4ccccc4)cc3)nn2c1=S [Compound T, 6-methyl-2-(4-phenylphenyl)-1,2,4-triazolo[1,5-a]-1,3,5-triazine-7(6H)-thione], the inhibition in vivo at 30 mg/kg (eosinophil) is reported as 80%.

For CNC(=S)n1nc(-c2ccc(Cl)cc2OC)nc1N [Compound P, 5-amino-3-(4-chloro-2-methoxyphenyl)-1-[methylamino(thiocarbonyl)]-1H-1,2,4-triazole], the inhibition in vivo at 30 mg/kg (eosinophil) was 85%.

Cn1cnc2nc(-c3ccc(Cl)c(Cl)c3)nn2c1=S [Compound V, 2-(3,4-dichlorophenyl)-6-methyl-1,2,4-triazolo[1,5-a]-1,3,5-triazine-7(6H)-thione] was tested, and the inhibition in vivo at 30 mg/kg (eosinophil) was 87% and the inhibition at 10 µM (T lymphocytes) was -40%.

For CNC(=S)n1ncnc1N [Compound A, 5-amino-1-[methylamino(thiocarbonyl)]-1H-1,2,4-triazole], the inhibition in vivo at 30 mg/kg (eosinophil) was 88%.

Work on Cn1cnc2nc(-c3ccc(Cl)cc3Cl)nn2c1=S [Compound U, 2-(2,4-dichlorophenyl)-6-methyl-1,2,4-triazolo[1,5-a]-1,3,5-triazine-7(6H)-thione] yielded an inhibition in vivo at 30 mg/kg (eosinophil) of 85% and an inhibition at 10 µM (T lymphocytes) of -22%.

In the case of CNC(=S)n1nc(-c2ccc(C#N)cc2)nc1N [Compound C, 5-amino-3-(4-cyanophenyl)-1-[methylamino(thiocarbonyl)]-1H-1,2,4-triazole], the inhibition in vivo at 30 mg/kg (eosinophil) is reported as 87%.

Cn1cnc2nc(-c3ccc(Cl)cc3)nn2c1=S [Compound H, 2-(4-chlorophenyl)-6-methyl-1,2,4-triazolo[1,5-a]-1,3,5-triazine-7(6H)-thione] was tested, and the inhibition in vivo at 30 mg/kg (eosinophil) was 83% and the inhibition at 10 µM (T lymphocytes) was -60%.

CNC(=S)n1nc(-c2ccc(Cl)cc2Cl)nc1N [Compound N, 5-amino-3-(2,4-dichlorophenyl)-1-[methylamino(thiocarbonyl)]-1H-1,2,4-triazole] gave an inhibition in vivo at 30 mg/kg (eosinophil) of 90%.

Cn1cnc2nc(-c3ccc(F)cc3)nn2c1=S [Compound Q, 2-(4-fluorophenyl)-6-methyl-1,2,4-triazolo[1,5-a]-1,3,5-triazine-7(6H)-thione] gave an inhibition in vivo at 30 mg/kg (eosinophil) of 82%.

Cn1cnc2nc(-c3ccc(C#N)cc3)nn2c1=S [Compound G, 2-(4-cyanophenyl)-6-methyl-1,2,4-triazolo[1,5-a]-1,3,5-triazine-7(6H)-thione] was tested, and the inhibition in vivo at 30 mg/kg (eosinophil) was 79%.

CNC(=S)n1nc(-c2ccc(Cl)cc2)nc1N [Compound D, 5-amino-3-(4-chlorophenyl)-1-[methylamino(thiocarbonyl)]-1H-1,2,4-triazole] was tested, and the inhibition in vivo at 30 mg/kg (eosinophil) was 87% and the inhibition at 10 µM (T lymphocytes) was -52%.

Work on CNC(=S)n1nc(-c2ccc(C(F)(F)F)cc2)nc1N [Compound L, 5-amino-1-[methylamino(thiocarbonyl)]-3-(4-trifluoromethylphenyl)-1H-1,2,4-triazole] yielded an inhibition in vivo at 30 mg/kg (eosinophil) of 88% and an inhibition at 10 µM (T lymphocytes) of -37%.

CNC(=S)n1nc(-c2cccc(Cl)c2)nc1N [Compound I, 5-amino-3-(3-chlorophenyl)-1-[methylamino(thiocarbonyl)]-1H-1,2,4-triazole] gave an inhibition in vivo at 30 mg/kg (eosinophil) of 70%.

CNC(=S)n1nc(-c2ccc(Cl)c(Cl)c2)nc1N [Compound O, 5-amino-3-(3,4-dichlorophenyl)-1-[methylamino(thiocarbonyl)]-1H-1,2,4-triazole] was tested, and the inhibition in vivo at 30 mg/kg (eosinophil) was 88%.
